Reference: publication PMC7667655, “Targeted Covalent Inhibition of Plasmodium FK506 Binding Protein 35” (ACS Medicinal Chemistry Letters, 2020)
Like-named read-outs stand apart in the source and are kept apart here. One block for each compound: values may come before it.

Key:
FKBP35 = molecular target: T1, FKBP35 (Plasmodium falciparum, UniProt Q8I4V8); experiment: Mass spec of FKBP35 incubated with D44 analogs; type: biochemical
T1 construct: FKBP35 Q5 -A128; 6His-SUMO (N, cleaved yes); made in house; host or cells: E. coli BL21 DE3
Procedure: Prior to DSC experiments 400 µL of the reaction mixture was saved f or mass spectrometry analysis. For intact mass analysis, 100 µL of the reaction mixture was diluted to 0.05 mg/mL and injected onto a ZORBAX StableBond 300 C8 HPLC column [2.1 x 100 mm, 3.5 µm (Agilent)] on an Agilent HPLC binary pump system. Initial m obile phase conditions were 15% acetonitrile/85% water, both containing 0.1% formic acid. Protein was desalted for 2 minutes and eluted from the column with a gradient of 15% to 75% acetonitrile over 10 min. Intact mass measurement was performed on a Q Exa ctive mass spectrometer with an ESI source (Thermo Scientific). Source parameters: spray voltage, 3500 V; capillary temperature, 340°C; sheath gas, 35; auxiliary gas, 5; (gas flows in arbitrary units of the ESI source). MS detection was performed using a Full MS scan acquisition method, scanning over the range 800 -2100 m/z. BioPharma Finder v 3.0 (Thermo Fisher Scientific) was used for data acquisition and analysis. DSC and mass spectrometry experiments were performed in parallel.
For chymotrypsin digestion , 20 µL of the reaction mixture was added to 20 µL of fresh denaturing solution (0.1 M urea, 0.1 M NaCl, adjusted to 10 ml with 50 mM Tris Buffer pH 8.0). Then 10 µL of 10 mM TCEP was added to the mixture, which was then incubated at 37 °C for 60 minutes. To prevent modification of free thiol groups in FKBP proteins during digestion, 4 µL of 50 mM iodoacetamide (IAA, Sigma No. A3221) was added followed by incubation at room temperature in the dark for 30 minutes. After the incubation, the reaction mixture w as brought up to 200 µL with 140 µL of 10 mM Trizma pH 7.5. The peptide fragments were generated by adding chymotrypsin at a molar ratio of 1 chymotrypsin : 100 FKBP protein and incubated overnight at 37 °C. The reaction was quenched by adding 10 µL of form ic acid (~5% of total volume) followed by a few seconds of a vortex pulse.
Samples were analyzed using a Thermo Fisher Scientific Vanquish UHPLC connected to a Q Exactive HF mass spectrometer with a HESI source. Source parameters were as follows: spray voltage, 3500 V; capillary temperature, 300 °C; sheath gas flow, 45; auxiliary gas flow; 10; sweep gas flow, 1; (gas flows in arbitrary units of the HESI source). Digested samples were injected onto an ACQUITY UPLC BEH C18 Column [130Å, 1.7 µm, 2.1 mm X 50 mm (Waters)] held at 45 °C and desalted for 30 s with 5% acetonitrile/95% water, both containing 0.1% formic acid. Peptides were separated using a 5% to 65% acetonitrile gradient over 6.5 min. MS detection was performed using a Full MS/ddMS2 (Top 5) acquisi tion method, scanning over the range 300 -1800 m/z. […]
DSC thermograms were recorded in MicroCal DSC from Malvern with an autosampler. […]

[1] = tested on: Plasmodium cultured parasites; conditions: Figure 1; read-out: IC50 in blood-stage antiplasmodium assays; cited from earlier work
[2] = Cell viability assay (CellTiter-Glo); type: cell-based; conditions: human
Procedure: (§1) In 96-well round-bottom plates, sorbitol -synchronized cultures of ring-stage NF54 P. falciparum parasites were established in triplicate and treated with varying concentrations of the inhibitors (25-0.0038 μM) serially diluted in complete medium. Parasite proliferation rates were analyzed after 72 h using the Renilla-Glo Luciferase Assay, and luminescence was measured using the GloMax® Discover Microplate Reader. EC 50 values were obtained from corrected dose-response curves using GraphPad Prism (version 5; GraphPad Software). Data represent the mean % luminescence relative to 5% DMSO-treated (vehicle, 100% growth) and 100 nM chloroquine-treated (no growth) controls.
(§2) In black, clear-bottom 96-well plates (No. 3904 Corning Life Sciences), HEK293T cells were plated at 2x10^5 cells/mL in DMEM high glucose, pyruvate media (ThermoFisher Scientific, cat. 11995073) supplemented with 10% FBS and 1% pen -strep (100 μL final volume). Cells were incubated overnight at 37°C, 5% CO2. Using a Tecan D300e digital dispenser, cells were dosed in triplicate […]
(§3) concentration, 100 mM stock in DMSO) and Carfilzomib (10 µM to 4.6 nM final concentration, 10 mM stock in DMSO) normalizing DMSO to 0.25%. Cells were then incubated at 37 °C, 5% CO2 for 72 hours. Following incubation, cells were treated with 70 µL CellTiter-Glo® Luminescent Cell Viability Assay Reagent (Promega, cat. G7570) and incubated in the dark at room temperature for 30 minutes. Plates were read using an EnVision Multimode Plate Reader (PerkinElmer). Cell viability data was normalized to DMSO controls and analyzed in GraphPad Prism 8 by fitting the data to “[Inhibitor] vs. normalized response – variable slope” model to obtain the curves.
Each compound was prepared in duplicate at 1 µM final concentration (0.2% DMSO) in human or mouse plasma (Aldrich). […]
After quenching, samples were centrifuged to pellet precipitated partic ulates and an aliquot of supernatant was diluted 1:1 with water. The resulting solution was analyzed by UPLC -MS/MS with compounds detected by MRM detection on a triple quadrupole mass spectrometer. […]

[3] = tested on: NF54 P. falciparum parasites; experiment: P. falciparum strain NF54 growth-inhibition assay; type: cell-based; conditions: Plasmodium falciparum; luciferase reporter NF54 line, 72 h
Procedure: Figure 6 P. falciparum strain NF54 growth-inhibition assay. […] Proliferation was measured by luminescence after a complete life-cycle and normalized to DMSO (100%) and chloroquine (100 nM, 0%). (B) Structural differences between synthetic ligands and compound IC50s (μM).
Substrate and Extracellular NanoLuc® Inhibitor (Promega, cat. N2160) were diluted at 1:166 and 1:500, respectively, in Opti -MEM I Reduced Serum Media. 25 µL of this solution was added to each well and plate was read immediately using an EnVision Multimode Plate Reader (PerkinElmer). The BRET ratio was calculated using the following formula:
BRET ratio = acceptorsample – acceptorno tracer control donorsample donorno tracer control
NanoBRET Target Engagement Assay (384-well)
HEK293T cells stably expressing either nLuc-FKBP12 or nLuc-FKBP35 were plated at 0.2×10^6 cells/mL in white, clear -bottom 384-well plates (Sigma Aldrich) in Opti -MEM I Reduced Serum Media (ThermoFisher Scientific) using a Mutidrop Combi Reagent Dispenser (ThermoFisher Scientific). Cells were incubated overnight at 37 °C, 5% CO 2. Using a Tecan D300e, the Rap-Gly-BDP tracer was added to cells to 1 µM. Plates were shaken at 700 RPM on an orbital plate shaker and incubated at 37 °C, 5% CO 2 for 10 minutes. Test compounds were added at the indicated concentrations using a Tecan D300e. Plates were shaken at 700 RPM on an orbital plate shaker and incubated at 37 °C, 5% CO 2 for 2 hours. NanoBRET Nano -Glo Substrate and Extracellular NanoLuc® Inhibitor (Promega, cat. N2160) were diluted at 1:166 and 1:500, respectively, in Opti-MEM I Reduced Serum Media. 10 µL of this solution was added to each well and plate was read immediately using an EnVision Multimode Plate Reader (PerkinElmer). The BRET ratio was calculated using the above formula.
Parasite Culture and Inhibition
NF54 P. falciparum parasites constitutively expressing Renilla luciferase (RLuc) and Blasticidin-S deaminase under the PfHsp86 5’ and PfHRP2 3‘ regulatory sequences integrated in the cg6 chromosomal locus 4 were maintained continuous ly in media consisting of human erythrocytes at 2% haematocrit (O+) resuspended in RPMI 1640 (Gibco® 31800022) supplemented with 5% Albumax (Gibco® 11021045; complete medium) and 2.5 µg/mL of Blasticidin (RPI Corp B12150-0.1) in a gas mixture consisting of 5% CO2, 1% O2, and 94% N2 at 37 °C (Trager and Jensen 2005).
Parasitemia was determined every 48 h through microscopic examination of thin blood smears fixed in methanol, stained with 10% Giemsa solution, and sub-cultured to 0.5-1% parasitaemia.
Compound susceptibility assays
as §1, §2
concentration, 100 mM stock in DMSO) and Carfilzomib (10 µM to 4.6 nM final concentration, 10 mM stock in DMSO) normalizing DMSO to 0.25%. Cells were then incubated at 37 °C, 5% CO2 for 72 hours. Following incubation, cells were treated with 70 µL CellTiter-Glo® Luminescent Cell […]

FKBP12 [4] = molecular target: T2, FKBP12 (Homo sapiens, UniProt P62942); experiment: Differential scanning calorimetry, FKBP12; type: binding; conditions: compound 40 µM
T2 construct: 6His-SUMO (N, cleaved yes); made in house; host or cells: E. coli (identical protocol to FBD35, BL21 DE3)

FKBP12 [5] = molecular target: T2, FKBP12; experiment: Fluorescence polarization competition, FKBP12; type: binding
nLuc-tagged FKBP12 = molecular target: T3, nLuc-tagged FKBP12 (Homo sapiens, UniProt P62942); experiment: NanoBRET cellular target engagement, nLuc-FKBP12; type: cell-based
T3 construct: full length Plasmodium falciparum FKBP35 and human FKBP12 DNA were; expressed in transfected cells

[6] = Plasma stability assay, human; type: in vitro ADME; conditions: percent remaining, 1 µM, 37 °C, 5 hours
Procedure: as §1, §2, §3
(§4) Each compound was prepared in duplicate at 1 µM final concentration (0.2% DMSO) in human or mouse plasma (Aldrich). Samples were incubated at 37 °C for 5 hours with mixing at 350 rpm on an orbital shaker. Aliquots of each sample were taken at time zero and following 5 hours. Each sample was quenched by adding acetonitrile in a 3:1 ratio and further diluting with 50 µl of PBS.
(§5) After quenching, samples were centrifuged to pellet precipitated partic ulates and an aliquot of supernatant was diluted 1:1 with water. The resulting solution was analyzed by UPLC -MS/MS with compounds detected by MRM detection on a triple quadrupole mass spectrometer. The ratio of compound peak areas at 0 and 5 hours were use d to calculate the percent remaining.

[7] = molecular target: T4, nLuc-tagged full length PfFKBP35 (Plasmodium falciparum, UniProt Q8I4V8); experiment: NanoBRET cellular target engagement, nLuc-FKBP35; type: cell-based
T4 construct: nanoluciferase-tagged (nLuc) full length PfFKBP35 or nLuc-tagged FKBP12; expressed in transfected cells

[8] = Plasma stability assay, mouse; type: in vitro ADME; conditions: percent remaining, 1 µM, 37 °C, 5 hours
Procedure: as §1, §2, §3, §4, §5

[9] = molecular target: T5, FBD35 (PfFKBP35 binding domain) (Plasmodium falciparum, UniProt Q8I4V8); experiment: Differential scanning calorimetry, FBD35; conditions: read-out: FBD35 ΔTM
T5 construct: FKBP35 Q5 -A128; 6His-SUMO (N, cleaved yes); made in house; host or cells: E. coli BL21 DE3

[10] = molecular target: T5, FBD35 (PfFKBP35 binding domain); experiment: Fluorescence polarization competition, FBD35

T1 sequence (Q8I4V8 5-128): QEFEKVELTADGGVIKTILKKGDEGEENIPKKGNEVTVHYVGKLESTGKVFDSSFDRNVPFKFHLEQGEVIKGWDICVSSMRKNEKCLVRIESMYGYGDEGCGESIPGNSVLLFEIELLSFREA
T5 sequence (Q8I4V8 5-128): as above
T2 sequence (P62942 whole entry): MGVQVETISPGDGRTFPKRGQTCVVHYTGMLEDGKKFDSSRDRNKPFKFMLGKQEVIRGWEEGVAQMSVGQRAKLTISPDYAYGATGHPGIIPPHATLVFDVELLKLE
T4 sequence (Q8I4V8 whole entry): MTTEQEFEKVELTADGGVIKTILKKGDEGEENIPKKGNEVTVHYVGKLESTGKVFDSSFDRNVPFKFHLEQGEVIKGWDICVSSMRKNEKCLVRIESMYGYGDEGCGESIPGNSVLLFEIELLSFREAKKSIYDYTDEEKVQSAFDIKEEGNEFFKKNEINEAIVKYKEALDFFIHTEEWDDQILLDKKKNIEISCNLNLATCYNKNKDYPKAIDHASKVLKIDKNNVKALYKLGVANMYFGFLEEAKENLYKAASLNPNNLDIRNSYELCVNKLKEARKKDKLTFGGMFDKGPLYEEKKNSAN
T3 sequence (P62942 whole entry): as the sequence (P62942 whole entry) above

% Abundance of modified FKBP35 (FKBP35; incubation temp 37 °C): 4.1%
% Abundance of modified FKBP35 (FKBP35; incubation temp RT): 11.5%
Structure (SMILES): C=CC(=O)NCc1ccccc1NC(=O)CSc1nc2cccnc2[nH]1 [D44a]

Structure (SMILES): CC[C@H]1CN(Cc2ccccn2)C(=O)[C@@H]2CCC[C@H]1N2S(=O)(=O)c1cc(Cl)cc(Cl)c1 [[4.3.1]-ABS]
IC50 [1]: 2300 nM

% Abundance of modified FKBP35 (FKBP35; incubation temp 37 °C): 37.0%
% Abundance of modified FKBP35 (FKBP35; incubation temp RT): 17.1%
Structure (SMILES): C=CC(=O)NCc1ccc(NC(=O)CSc2nc3cccnc3[nH]2)cc1 [D44c]

Structure (SMILES): CC(C)C[C@H](NC(=O)[C@H](CCc1ccccc1)NC(=O)CN1CCOCC1)C(=O)N[C@@H](Cc1ccccc1)C(=O)N[C@@H](CC(C)C)C(=O)[C@@]1(C)CO1 [carfilzomib]
IC50 at 72 h [2]: 15 nM

Structure (SMILES): CO[C@H]1C[C@@H]2CC[C@@H](C)[C@@](O)(O2)C(=O)C(=O)N2CCCC[C@H]2C(=O)O[C@H]([C@H](C)C[C@@H]2CC[C@@H](O)[C@H](OC)C2)CC(=O)[C@H](C)/C=C(\C)[C@@H](O)[C@@H](OC)C(=O)[C@H](C)C[C@H](C)/C=C/C=C/C=C/1C [Rapamycin, reference compound]
IC50 [3]: 1100 nM
IC50 at 72 h ([2]; HEK293T cells, HEK293T, 72 hour treatment, read-out: IC50 cell viability): 63000 nM

Structure (SMILES): CCC(=O)OCC(C)(C)C(=O)C(=O)N1CCCC[C@H]1C(=O)O[C@H](CCc1ccc(OC)c(OC)c1)c1ccccc1 [2d]
ΔTm at 40 µM (FKBP12 [4]): 5.9 °C
IC50 (FKBP12 [5]): 43 nM
IC50 (nLuc-tagged FKBP12): 454 nM
Plasma Stability (human) [6]: 1%
IC50 [7]: 1310 nM
Plasma Stability (mouse) [8]: 0%
ΔTm at 40 µM [9]: 3 °C
IC50 [10]: 99 nM
IC50 [3]: 9900 nM
